# Results: patent US6784153B1, “Methods of homing molecules to lung using membrane dipeptidase” (The Burnham Institute, priority 1998, dated 2004)
# Entries after “also recorded” stand apart in the source; their conditions may differ.
# How the values were obtained:
# liver = assay: in vivo panning of X7 library, liver; set-up: species or system mice
# Protocol: (§1) Following various in vivo panning screens, hundreds of thousands to millions of phage expressing homing peptides were recovered from the respective organ or tissue. Generally, the phage collected from a round of in vivo panning were plated on agar, about 250 to 300 clones were selected, grown in 5 ml cultures, then pooled and readministered for a subsequent round of in vivo panning (“regular method”). However, in some experiments, 1000 clones were selected, grown in 2 ml cultures, then pooled and administered for a subsequent round of screening; or the entire agar plate was scraped and all of the phage were cultured together and administered for a subsequent round of screening. The peptide inserts of various isolated phage were determined such that, of the millions of phage that homed, only a small number of sequences were identified.
# Also provided are liver homing peptides. Such peptides were identified by injection of an X7 (SEQ ID NO: 29) library into mice. The peptides were isolated by the regular method (see Example II, Table 1, and Table 11, below).
# (§2) Organ samples were washed 3 times with ice cold DMEM-PI containing 1% bovine serum albumin (BSA), then directly incubated with 1 ml K91-kan bacteria for 1 hr. Ten ml NZY medium containing 0.2 μg/ml tetracycline (NZY/tet) was added to the bacterial culture, the mixture was incubated in a 37° C. shaker for 1 hr, then 200 μl aliquots were plated in agar plates containing 40 μg/ml tetracycline (tet/agar).
# Approximately 250 to 300 individual bacterial colonies containing phage recovered from the various organs or tissues were grown for 16 hr in 5 ml NZY/tet. In some experiments, approximately 1000 individual bacteria containing phage were picked and the phage were amplified in 2 ml of NZY/tet or the entire plate containing phage was scraped, pooled and grown in bulk and processed for injection. […] Phage DNA was purified from individual bacterial colonies obtained and the DNA sequences encoding the peptides expressed by selected phage were determined (see Koivunen et al., supra, 1994b).
# adrenal gland = assay: in vivo panning of X7 library, adrenal gland; set-up: species or system mice
# Protocol: as §1
# The invention also provides adrenal gland homing peptides such as LMLPRAD (SEQ ID NO: 27) and LPRYLLS (SEQ ID NO: 28), which share a LPR motif (see Table 11), or the peptides R(Y/F)LLAGG (SEQ ID NO: 404) and RYPLAGG (SEQ ID NO: 389), which share the motif LAGG (SEQ ID NO: 430; see Table 10). The exemplified adrenal gland homing peptides were identified by injection of an X7 (SEQ ID NO: 29) library into mice. The peptides were isolated by the regular method.
# as §2
# Approximately 250 to 300 individual bacterial colonies containing phage recovered from the various organs or tissues were grown for 16 hr in 5 ml NZY/tet. […] Phage DNA was purified from individual bacterial colonies obtained and the DNA sequences encoding the peptides expressed by selected phage were determined (see Koivunen et al., supra, 1994b).
# lung = assay: in vivo homing of phage displaying peptides to lung; set-up: species or system mice
# Protocol: For lung and pancreas, a mixture of phage libraries containing 10^10 TU was diluted in 200 μl DMEM and injected into the tail vein of anesthetized BALB/c mice (2 month old; Harlan Sprague Dawley; San Diego Calif.); AVERTIN (0.017 ml/g) was used as anesthetic (Pasqualini and Ruoslahti, supra, 1996). After 1-4 minutes, mice were snap frozen in liquid nitrogen or, after about 5 minutes of phage circulation, the mice were perfused through the heart with 5-10 ml of DMEM (SIGMA; St. Louis Mo.). To recover the phage, the organs from the perfused mice or partially thawed organs from snap frozen mice were collected and weighed, then were homogenized in 1 ml DMEM-PI (DMEM containing protease inhibitors (PI); phenylmethyl sulfonyl fluoride (PMSF; 1 mM), aprotinin (20 μg/ml), leupeptin (1 μg/ml)).
# as §2
# (§3) Approximately 250 to 300 individual bacterial colonies containing phage recovered from the various organs or tissues were grown for 16 hr in 5 ml NZY/tet. In some experiments, approximately 1000 individual bacteria containing phage were picked and the phage were amplified in 2 ml of NZY/tet or the entire plate containing phage was scraped, pooled and grown in bulk and processed for injection. Where phage were cultured separately, the cultures were pooled and the phage were injected into mice or rats as described above for a second round of in vivo panning. In some experiments, a third or fourth round of panning was performed. Phage DNA was purified from individual bacterial colonies obtained and the DNA sequences encoding the peptides expressed by selected phage were determined (see Koivunen et al., supra, 1994b).
# After two or three rounds of in vivo panning of mice injected with a cyclic CX3CX3CX3C (SEQ ID NO: 25) or a cyclic CX6C (SEQ ID NO: 26) phage display library, four peptides that homed to lung were identified.
# To determine the specificity of lung homing of the individual peptides identified, phage displaying the peptides were amplified individually, diluted to the same input titer and administered to mice. Following administration, control kidney and brain organ was removed and the number of TU of phage in lung, kidney and brain was determined. The results shown in FIG. 2 reveal that 10× and 35× more phage having the peptide sequence CGFECVRQCPERC (SEQ ID NO: 1; GFE-1) bound to lung than to kidney and brain, respectively. […] The lung homing peptides CGFECVRQCPERC (SEQ ID NO: 1; GFE-1), CGFELETC (SEQ ID NO: 2; GFE-2), CTLRDRNC (SEQ ID NO: 15) and CIGEVEVC (SEQ ID NO: 16) are enriched in lung at 35×, 9×, 6× and 5×, respectively, over unselected phage (see FIG. 2).
# murine MDP = target: T1, murine MDP (Mus musculus, UniProt P31428); assay: phage binding to COS-1 cells transfected with MDP; settings: 5×10^6 COS-1 cells, 10^10 TU phage
# T1 construct: The amplified 1.3 kb murine MDP cDNA was digested with KpnI and XbaI, and inserted into the same sites of the pcDNA3 expression vector; expressed in transfected cells; host or cells: COS-1 cells, pcDNA3 expression vector
# T1 sequence (P31428 17-384): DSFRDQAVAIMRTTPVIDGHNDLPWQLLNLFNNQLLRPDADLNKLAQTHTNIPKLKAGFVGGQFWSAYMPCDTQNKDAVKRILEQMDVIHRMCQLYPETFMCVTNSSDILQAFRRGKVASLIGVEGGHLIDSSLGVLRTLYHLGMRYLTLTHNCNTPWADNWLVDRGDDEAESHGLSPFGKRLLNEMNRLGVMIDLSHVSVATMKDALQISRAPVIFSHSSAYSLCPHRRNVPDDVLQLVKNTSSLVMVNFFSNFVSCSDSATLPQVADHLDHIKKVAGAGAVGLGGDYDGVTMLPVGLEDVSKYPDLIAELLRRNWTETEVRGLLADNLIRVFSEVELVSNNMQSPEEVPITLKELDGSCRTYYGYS
# Protocol: The COS-1 cell line, which is known to have low or no detectable level of MDP activity, has been used extensively to study MDP structure and function (Keynan et al., supra, 1996; Keynan et al., Biochem, J. 326:47-51 (1997)). COS-1 cells were trasfected with murine MDP and used to assay binding to SEQ ID NOS: 1 and 2 as described below.
# For transfection into COS-1 cells, a murine MDP expression vector was prepared as follows. Total mouse lung RNA was isolated using Qiagen RNA purification columns (Qiagen; Santa Clarita, Calif.) and used as a template for first strand cDNA synthesis with reverse transcriptase and a mixture of random hexamers and poly-dT oligonucleotides (GIBCO/BRL; Grand Island, N.Y.). Mouse MDP cDNA (Pasqualini et al., J. Cell Biol. 130:1189-1196 (1995)) was amplified from the cDNA pool by PCR using the oligonucleotide pair: […] (SEQ ID NO: 446), which contains a KpnI adaptor, and […] (SEQ ID NO: 447), which contains an XbaI adaptor, using Taq polymerase from GIBCO/BRL. The amplified 1.3 kb murine MDP cDNA was digested with KpnI and XbaI, and inserted into the same sites of the pcDNA3 expression vector (Invitrogen; Carlsbad, Calif.) using DNA restriction enzymes and T4 DNA ligase from New England Biolabs (Beverly, Mass.). Successful cloning of the murine MDP cDNA was confirmed by DNA sequencing. Transfection of the COS-1 cells was performed with the Superfect Reagent from Qiagen as recommended by the manufacturer.
# Phage binding to COS-1 cells transfected with MDP was determined as follows. Briefly, 10^7 COS-1 cells were transfected with 10 μg of either the MDP expression vector or the vector alone. After 48 hours, cells were scraped gently from the dish, washed once, and subjected to the phage binding assay or membrane dipeptidase activity assay described above. For the phage binding assay, 5×10^6 cells and 10^10 transducing units (TU) of phage input were used. For measurement of membrane dipeptidase activity, 10^6 cells were lysed in 100 μl of PBS/octylglycoside without protease inhibitors. A 10 μl aliquot of the extract was used to measure MDP activity.
# retina = assay: in vivo homing of phage displaying peptides to retina, coinjected with control phage fdAMPLAY88; set-up: species or system rats; settings: for enrichment in retina: injected individually with control fdAMPLAY88 phage; for enrichment in retina compared to control fdAMPLAY88 phage: rat, in vivo
# Protocol: For in vivo panning of retina, two month old female Simonson Albino rats were used to provide larger tissue samples than mice. The rats were anesthetized with phenobarbital (50 mg/kg body weight), and, while under deep anesthesia, the abdominal cavity of the rats was opened and 10^10 TU of a phage library was injected into the left ventricle of the heart through the diaphragm. After 2-5 minutes of phage circulation, the eyes were removed, then washed once in 70% EtOH and once in PBS. The anterior chamber, with cornea and lens, was removed and the retina was peeled from the remaining posterior chamber. The tissue was weighed, homogenized with a syringe bulb in 1 ml of ice cold DMEM containing protease inhibitors (1 mM PMSF, 20 μg/ml aprotinin and 1 μg/ml of leupeptin; all from SIGMA; St. Louis Mo.). The tissue was washed 3 times with 1 ml of DMEM and the phage were rescued as described below.
# as §3
# Rats injected with a cyclic CX7C (SEQ ID NO: 24) phage display library were subjected to in vivo panning and, after three rounds, the peptide sequences CSCFRDVCC (SEQ ID NO: 5) and CRDVVSVIC (SEQ ID NO: 6) were identified in retina. Because of small tissue sample size, the phage isolated could not be accurately quantitated. Thus, the selectivity of phage displaying the peptides was determined by individually amplifying the phage displaying the sequence and administering the phage to rats with a control phage fdAMPLAY88. This fd-ampicillin phage is similar to fd-tetracycline (fuse 5-based) in that it has the same infectivity.
# Rats were injected with an equal amount of the CSCFRDVCC (SEQ ID NO: 5) or CRDVVSVIC (SEQ ID NO: 6) and the fdAMPLAY88 phage. Following administration, homing to retina was evaluated by comparing the number of TU of the selected phage on tetracycline plates and fdAMPLAY88 on ampicillin plates recovered from retina.
# [1] = individually amplified phage, FIG. 2
substance,measurement,setting,value
VKSVCRT [peptide from phage recovered from liver],% OF MOTIF AMONG ALL CLONES,liver,11%
LMLPRAD [peptide from phage recovered from adrenal gland],% OF MOTIF AMONG ALL CLONES,adrenal gland; ADRENAL GLAND,11%
same,adrenal gland/brain homing ratio,"adrenal gland; ADRENAL GLAND section, adrenal gland as compared to brain",50
same,enrichment in adrenal gland as compared to brain,"adrenal gland; mouse, in vivo",50 fold
CGFELETC [lung homing peptide],% OF MOTIF AMONG ALL CLONES,lung; LUNG,5%
same,LUNG/BRAIN RATIO,lung; LUNG section,9
same,homing of lung homing phage to control kidney or brain,lung; control organs,few phage detected in kidney or brain; also recorded: no selective homing to kidney or brain was detected
same,enriched in lung over unselected phage,lung; [1],9 ×
same,phage bound to lung than to brain,lung; [1],20 ×
same,phage bound to lung than to kidney,lung; [1],12 ×
same,enrichment in lung as compared to unselected phage,"lung; mouse, in vivo",9 fold
same,phage bound to MDP transfected cells than to mock transfected cells,murine MDP,also bound MDP transfected cells
CRDVVSVIC [retina homing peptide],enrichment in retina,retina,2 fold
same,enrichment in retina compared to control fdAMPLAY88 phage,retina,2 ×
CSCFRDVCC [retina homing peptide],enrichment in retina,retina,3 fold
same,enrichment in retina compared to control fdAMPLAY88 phage,retina,3 ×
SRRFVGG [peptide from phage recovered from liver],% OF MOTIF AMONG ALL CLONES,liver,6%
WRQNMPL [peptide from phage recovered from liver],% OF MOTIF AMONG ALL CLONES,liver,6%
